Reference: US7208526B2, “Styrylsulfonamides” (Hoffmann-La Roche Inc., priority 2005, dated 2007)
Counter-ions that a name gives are not always drawn.

Test system: HCT 116 cells (human colon carcinoma, ATCC-No. CCl-247)
Experiment: Viability assay in HCT 116 cells (CellTiter-Glo Luminescent Cell Viability Assay)
Assay type: cell-based
Details: 10 concentrations 30 μM to 0.0015 μM, incubation 120 h (5 days), luminescence (ATP), triplicate
Text: Viability Assay in HCT 116 Cells
This assay is a homogeneous method of determining the number of viable cells in culture based on quantitation of the ATP present, an indicator of metabolically active cells. The assay is designed for use with multiwell formats, making it ideal for automated high-throughput screening (HTS), cell proliferation and cytotoxicity assays. The homogeneous assay procedure involves adding a single reagent (containing luciferase, luciferan substrate, and buffer) directly to cells cultured in serum-supplemented medium. Cell washing, removal of medium and multiple pipetting steps are not required. The system detects as few as 15 cells/well in a 384-well format in 10 minutes after adding reagent and mixing.
The homogeneous “add-mix-measure” format results in cell lysis and generation of a luminescent signal proportional to the amount of ATP present. The amount of ATP is directly proportional to the number of cells present in culture. The above-referenced assay generates a “glow-type” luminescent signal, produced by the luciferase reaction, which has a half-life generally greater than five hours, depending on cell type and medium used. The extended half-life eliminates the need to use reagent injectors and provides flexibility for continuous or batch mode processing of multiple plates. The unique homogeneous format avoids errors that may be introduced by other ATP measurement methods that require multiple steps.
For the assay the cells were seeded in 384 well plates, 1000 cells per well, in the same medium. […] After 5 days the viability assay was done according to the instructions of the manufacturer. In brief: the cell-plate was equilibrated to room temperature for approximately 30 minutes and then reagent (containing luciferase, luciferan substrate, and buffer) was added. The contents were carefully mixed for 15 minutes to induce cell lysis. After 45 minutes the luminescent signal was measured in Victor 2, (scanning multiwell spectrophotometer, Wallac).
In order to achieve a final concentration of 30 μM as highest concentration […] of 10 mM compound stock solution were added directly to 163 μl media. Then step e) of the dilution procedure described below, was followed.
Analysis: • Add 30 μl of reagent containing luciferase, luciferan substrate, and buffer per well, • shake 15 minutes at room temperature • incubate further 45 minutes at room temperature without shaking
Measurement: • Victor 2 scanning multiwell spectrophotometer (Wallac), Luminescence mode (0.5 sec/read, 477 nm) • Determine IC50 using a non-linear curve fit (XLfit® software [ID Business Solution Ltd., Guilford, Surrey, UK])

Structure (SMILES) | IC50
COc1ccccc1/C=C/S(=O)(=O)NC(=O)c1ccc(C)cc1C [Example 4-31, (E)-2-(2-Methoxy-phenyl)-ethenesulfonic acid 2,4-dimethyl-benzoylamide; sodium salt] | 0.5 to 15 µM
COc1cc(Br)ccc1C(=O)NS(=O)(=O)/C=C/c1ccccc1 [Example 5-1, (E)-2-Phenyl-ethenesulfonic acid 4-bromo-2-methoxy-benzoylamide] | 0.5 to 15 µM
Cc1ccc(C(=O)NS(=O)(=O)/C=C/c2ccccc2)c(C(F)(F)F)c1 [Example 5-2, (E)-2-Phenyl-ethenesulfonic acid 4-methyl-2-trifluoromethyl-benzoylamide] | 0.5 to 15 µM
COc1cc(F)ccc1C(=O)NS(=O)(=O)/C=C/c1ccccc1 [Example 5-3, (E)-2-Phenyl-ethenesulfonic acid 4-fluoro-2-methoxy-benzoylamide] | 0.5 to 15 µM
O=C(NS(=O)(=O)/C=C/c1ccccc1)c1ccc(Cl)cc1Br [Example 5-4, (E)-2-Phenyl-ethenesulfonic acid 2-bromo-4-chloro-benzoylamide] | 0.5 to 15 µM
COc1cc(C(F)(F)F)ccc1C(=O)NS(=O)(=O)/C=C/c1ccccc1 [Example 5-6, (E)-2-Phenyl-ethenesulfonic acid 2-methoxy-4-trifluoromethyl-benzoylamide] | 0.5 to 15 µM
COc1cc(Cl)ccc1C(=O)NS(=O)(=O)C=Cc1ccccc1 [Example 6-1, 2-Phenyl-ethenesulfonic acid 4-chloro-2-methoxy-benzoylamide] | 0.5 to 15 µM
O=C(NS(=O)(=O)/C=C/c1ccccc1)c1ccc(F)cc1Br [Example 6-2, (E)-2-Phenyl-ethenesulfonic acid 2-bromo-4-fluoro-benzoylamide; sodium salt] | 0.5 to 15 µM
Cc1ccc(C(=O)NS(=O)(=O)/C=C/c2ccccc2)c(Br)c1 [Example 6-3, (E)-2-Phenyl-ethenesulfonic acid 2-bromo-4-methyl-benzoylamide; sodium salt] | 0.5 to 15 µM
O=C(NS(=O)(=O)/C=C/c1ccccc1)c1ccc(Br)cc1Cl [Example 6-5, (E)-2-Phenyl-ethenesulfonic acid 4-bromo-2-chloro-benzoylamide; sodium salt] | 0.5 to 15 µM
Cc1cc(Cl)ccc1C(=O)NS(=O)(=O)/C=C/c1ccccc1 [Example 6-6, (E)-2-Phenyl-ethenesulfonic acid 4-chloro-2-methyl-benzoylamide; sodium salt] | 0.5 to 15 µM

Further lines, results first:

IC50 | Structure (SMILES)
0.5 to 15 µM | O=C(NS(=O)(=O)/C=C/c1ccc(OC(F)(F)F)cc1)c1ccc(F)cc1Br [Example 4-22, (E)-2-(4-Trifluoromethoxyphenyl)-ethenesulfonic acid 2-bromo-4-fluoro-benzoylamide; sodium salt]
0.5 to 15 µM | COc1cccc(/C=C/S(=O)(=O)NC(=O)c2ccc(Br)cc2Cl)c1 [Example 4-25, (E)-2-(3-Methoxy-phenyl)-ethenesulfonic acid 4-bromo-2-chloro-benzoylamide; sodium salt]
0.5 to 15 µM | O=C(NS(=O)(=O)/C=C/c1ccccc1Cl)c1ccc(Br)cc1Cl [Example 4-28, (E)-2-(2-Chloro-phenyl)-ethenesulfonic acid 4-bromo-2-chloro-benzoylamide; sodium salt]
0.5 to 15 µM | Cc1ccc(C(=O)NS(=O)(=O)/C=C/c2ccc(Cl)c(Cl)c2)c(C)c1 [Example 4-34, (E)-2-(3,4-Dichloro-phenyl)-ethenesulfonic acid 2,4-dimethyl-benzoylamide; sodium salt]
0.5 to 15 µM | Cc1cc(Br)ccc1C(=O)NS(=O)(=O)/C=C/c1ccc(C(F)(F)F)cc1 [Example 4-35, (E)-2-(4-Trifluoromethyl-phenyl)-ethenesulfonic acid 4-bromo-2-methyl-benzoylamide; sodium salt]
0.5 to 15 µM | Cc1ccc(C(=O)NS(=O)(=O)/C=C/c2ccc(OC(F)(F)F)cc2)c(Br)c1 [Example 4-37, (E)-2-(4-Trifluoromethoxyphenyl)-ethenesulfonic acid 2-bromo-4-methyl-benzoylamide; sodium salt]
0.5 to 15 µM | Cc1ccc(C(=O)NS(=O)(=O)/C=C/c2ccc(C(F)(F)F)cc2)c(C)c1 [Example 4-40, (E)-2-(4-Trifluoromethyl-phenyl)-ethenesulfonic acid 2,4-dimethyl-benzoylamide; sodium salt]
